We go through 2 compounds from patent US9913801B2 (YOUR ENERGY SYSTEMS, LLC, priority 2013, dated 2018).

SMILES strings stand for the structures. Where two headings read alike, the source gives them in different places.

For test [1] the following is noted: rat liver, cited from earlier work.
The test system of test [2] is Mycobacterium tuberculosis. The following applies: at 10 millimolar.

Take `N[C@@H](CCC(=O)N[C@@H](CS)C(=O)NCC(=O)O)C(=O)O` [Plain glutathione, glutathione]: the removal of toxin in test [1] (intravenous) is listed as 64%; in test [1] (oral) it was 0%.

Regarding `CC(=O)N[C@@H](CS)C(=O)O` [NAC, N-Acetyl Cysteine], the “Mycobacterium tuberculosis CFU/ml” value in test [2] is 8,000 CFU/ml.
